In patent US20130183686A1, “METHOD OF EVALUATING IMMUNOSUPPRESSION” (priority 2008, published 2013):
Entries after “also recorded” stand apart in the source; their conditions may differ.

What was measured:
Assay type in all cases: cell-based, human
[1] = tested on: NFkB; experiment: PMA/Ionomycin-induced NFkB activation in healthy donor CD4+ cells in plasma, imaging flow cytometry; details: increasing concentrations of Tacrolimus (FIG. 6)
[2] = tested on: NFAT; experiment: PMA/Ion-induced NFAT activation potential in CD4+ and CD8+ T cells of stable transplant recipients receiving tacrolimus
Description: Protocol to measure the NF-κB and/or NFAT activation potential in immunophenotypically defined cell populations: Obtain peripheral blood sample in sodium heparin container. Keep PBL sample at ambient room temperature. Prepare sufficient number of 15 mL polypropylene tubes (10-9152N, Niagara Scientific, Lancaster, N.Y.) to accommodate the number of variables to be tested. One tube is needed for the unstimulated control, one for the unstimulated cell line control (HL60 […] or Jurkat) and two (1 for HL60 and 1 for patient sample) for each of the stimulation conditions to be tested (e.g. PMA/Ion, TNFα, CD3/CD28, etc.). Aliquot 500 μl whole blood per tube for the patient samples. For cell line controls, add enough volume from culture flask to yield 2×10^6 cells/tube. […]
Cell line controls are washed in 1× Phosphate Buffered saline solution (1×PBS) (Mediatech, Herndon, Va.), and then fixed by adding 1 ml of a 4% solution of methanol free Formaldehyde (Polysciences, Warrington, Pa.) at room temperature for 10 minutes. Cells are washed twice in 1×PBS, spin, and resuspend cell pellets in residual volume (they are now ready to be probed for NF-κB and/or NFAT and are left at room temperature until whole blood samples are ready). […] Cells are now ready to be probed for NF-κB and/or NFAT. […] Samples are then washed in 1×PBS and are ready to be run on the imaging cell sorting machine. […]

[3] = tested on: NFAT; experiment: PMA/Ionomycin-induced NFAT translocation in healthy donor cells, imaging flow cytometry
[4] = tested on: NFAT1; experiment: PMA/Ionomycin-induced NFAT1 translocation in Jurkat cells incubated in patient plasma obtained after in vivo tacrolimus administration; details: patient plasma obtained between 1 h and 12 h after tacrolimus administration (FIGS. 8 and 9)

With C=CC[C@@H]1/C=C(\C)C[C@H](C)C[C@H](OC)[C@H]2O[C@@](O)(C(=O)C(=O)N3CCCC[C@H]3C(=O)O[C@H](/C(C)=C/[C@@H]3CC[C@@H](O)[C@H](OC)C3)[C@H](C)[C@@H](O)CC1=O)[C@H](C)C[C@@H]2OC [tacrolimus] the “inhibitory effect on NFkB activation” value [1] was “less pronounced for NFkB but can be seen at higher drug concentrations”, the “correlation between trough tacrolimus levels and NFAT activation potential” value ([2]; CD4+ and CD8+ cells of transplant recipients chronically exposed to tacrolimus) was “Neither for CD4+ nor CD8+ cells was a correlation found; also recorded: no statistically significant dose-response relationship was observed” and the “difference in NFAT activation potential before (0 h) and after (4 h) a dose” value ([2]; CD4+ or CD8+ cells of stable transplant recipients) was “did not determine a significant difference”. For the same compound, the NFAT translocation potential ([3]; healthy donor CD4+ cells in plasma, increasing concentrations of Tacrolimus (FIG. 6)) was “dose-dependent decrease”, the “inhibition of PMA/Ion-induced NFAT translocation” value ([3]; healthy donor peripheral blood, CD4+ cells in culture medium, increasing concentration of tacrolimus (FIG. 5)) was “dose-dependent inhibition” and the “correlation between extracellular concentrations and PMA/Ionomycin-induced NFAT1 activation potential” value ([3]; in vitro, spiked into tissue culture media, plasma or whole blood, naive cells (Jurkat or healthy donor CD4+ or CD8+ T cells)) was “a strong correlation is observed”. The “inhibitory effect on NFAT in cells naive to previous tacrolimus exposure” value [4] was “closely mirrors that of the expected plasma levels; also recorded: a good dose-response was observed”.
